Data published in paper PMC12970513, “Unsaturated Phosphorus Electrophiles to Probe Protein Tyrosine Phosphatases” (Angewandte Chemie (International Ed. in English), 2026).

Key:
[1] = Stability of SM-PN and SM-PO in aqueous buffer by 31P NMR; format: physicochemical; conditions: room temperature
Experimental: Next, we assessed the stability of the phosphonamidic and phosphonic acid in aqueous buffers at pH 2, pH 3.5, pH 7.4, pH 8.5, and pH 11. Therefore, SM‐PN and SM‐PO were added in the corresponding buffers and monitored for 48 h at room temperature via ^31P‐NMR with triphenylphosphinoxide (TPPO) as an internal standard (Figure S2). […] Furthermore, we evaluated the stability of the peptide probes bio‐PN and bio‐PO in human lysate for subsequent experiments. These peptides were added in HEK293T cell lysate, and changes in stability were recorded for 18 h via ^31P‐NMR, in which inorganic phosphate served as an internal standard. […] Nonetheless, both peptides display sufficient stability for follow‐up studies.
Figure S2: pH dependent stability of phosphonamidic and phosphonic acids at room temperature monitored by ^31P NMR. a) Decay of starting material SM-PN. […] At pH 2.0 the compound was already hydrolyzed in minutes before the next measurement. b) Decay of SM-PO in identical conditions.
Internal standard triphenylphosphine oxide (TPPO, 12 µL of a 100 mM stock in DMSO, final concentration 2 mM) and SM-PN or SM-PO (36 µL of a 50 mM stock in DMSO, final concentration 3 mM) were added in microcentrifuge tubes containing 552 µL of each test buffer solution (0.1% TFA pH 2, 50 mM NaOAc pH 3.5, 50 mM Tris pH 7.4, 50 mM Tris pH 8.5, 50 mM TEAB pH 11.0, containing 10% D2O (492 μL buffer and 60 μL D2O) and mixed right before the measurement. The mixtures were transferred to NMR tubes and one-dimensional ^31P-NMR spectra were recorded for each sample at room temperature, in intervals of 4 h over the course of 48 h on a Bruker AV-III 600 or AV-III 300 spectrometer. For analysis, the spectra were plotted in MestReNova and the intensity of the ^31P-NMR signal was analyzed by integration.

[2] = system: PTP1B in MCF-7 cell lysate; test: Lysate labeling by western blot, MCF-7; parameters: species or system human; conditions: 25–500 µM, 4 h, MCF-7 lysate 4 mg/mL
Experimental: To verify a consistent labeling profile by TMR‐PO, we tested additional PTP1B‐containing mammalian lysates. […] Therefore, we attempted to identify conditions where more intense labeling is noticeable. […] Increasing reaction time led to a proportional increase in biotin‐signal overlapping with the PTP1B band. […] A 4‐h incubation was chosen for the following experiments for ease of protocol and due to the robust labeling observed.
In that respect, following a 4‐h incubation time, we tested increasing concentrations of bio‐PO up to 500 µM to further increase the labeling efficiency. […] This highlights that labeling is also consistent with the abundance of PTP1B in these cell lines, which was measured by quantitative proteomics (Figure 5b). […]
For western blot analysis, samples resolved by SDS-PAGE were transferred to a polyvinylidene difluoride (PVDF) membrane using a Trans-Blot Turbo (Bio-Rad) semi dry blotting system according to the manufacturer`s instructions. […] The HRP signal was detected using the Pierce ECL Western Blotting Substrate (ThermoFisher Scientific) and imaged using the ChemiDoc (Bio-Rad) imaging system. […] Biotin was probed against using Streptavidin-horse radish peroxidase (HRP) conjugate (Thermo Fisher Scientific, N100) at a 1:5000 dilution for 1 hour at room temperature and the HRP signal was detected as mentioned above. […]

SMILES: C#CP(=O)(O)Oc1ccc(CCNC(=O)CCCC[C@@H]2SC[C@@H]3NC(=O)N[C@@H]32)cc1 [SM-PO, 4-(2-biotinamidoethyl)phenyl ethynylphosphonic acid monoester]
- stability at all tested pH values ([1]; pH 2, pH 3.5, pH 7.4, pH 8.5 and pH 11, 3 mM compound, 48 h): excellent stability in all tested pH values
- labeling of MCF-7 lysate by small molecule control SM-PO [2]: a band with increasing intensity was apparent in the biotin signal upon concentration increase

SMILES: C#CP(=O)(O)Nc1ccc(CCNC(=O)CCCC[C@@H]2SC[C@@H]3NC(=O)N[C@@H]32)cc1 [SM-PN, N-(4-(2-biotinamidoethyl)phenyl)-P-ethynylphosphonamidic acid]
- stability in neutral and basic pH ([1]; 50 mM Tris pH 7.4, 50 mM Tris pH 8.5, 50 mM TEAB pH 11.0, 3 mM compound, 48 h): good stability in neutral and basic pH
- hydrolysis ([1]; pH 2 (0.1% TFA), 3 mM compound, TPPO internal standard): already hydrolyzed in a few minutes
- hydrolysis of the starting material ([1]; pH 3.5 (50 mM NaOAc), 3 mM compound, 10% D2O, TPPO internal standard, 48 h): about 80%
- labeling of MCF-7 lysate by small molecule control SM-PN [2]: No labeling was observed
